Assay results taken from patent US9944602B2, “Piperidinone herbicides” (E. I. DU PONT DE NEMOURS AND COMPANY, priority 2014, dated 2018).

Experiments:
Assay type in all cases: in vivo
[1] = tested on: sedge, umbrella (small-flower umbrella sedge, Cyperus difformis); assay: Test B flooded paddy test sedge, umbrella; conditions: Table B, Flood, 500 g ai/ha, scale 0 to 100
In short: (§1)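 Visual injury relative to controls was scored after 13 to 15 d in the greenhouse. Treatment was by adding compound straight to flood water 3 cm deep, maintained for the whole test, on plants at the 2-leaf stage.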

[2] = tested on: foxtail, giant (giant foxtail, Setaria faberii); assay: Test A preemergence foxtail, giant; conditions: 0 to 100 scale, 0 no effect, 100 complete control
In short: (§2)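 Compounds in non-phytotoxic solvent with surfactant, applied preemergence as directed soil spray on seeds in loam–sand blend, or postemergence to plants 2–10 cm tall at one- to two-leaf stage. Greenhouse ~10 d, then visual injury versus untreated controls, 0 (no effect) to 100 (complete control).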

[3] = tested on: ducksalad (Heteranthera limosa); assay: Test B flooded paddy test ducksalad; conditions: Table B, Flood, 500 g ai/ha, scale 0 to 100
In short: as §1

[4] = tested on: ryegrass, Italian (Italian ryegrass, Lolium multiflorum); assay: Test A postemergence ryegrass, Italian; conditions: 0 to 100 scale, 0 is no effect, 100 is complete control
In short: as §2

[5] = tested on: corn (Zea mays); assay: Test A postemergence corn; conditions: 0 to 100 scale, 0 is no effect, 100 is complete control
In short: as §2

[6] = tested on: ragweed (common ragweed, Ambrosia elatior); assay: Test A postemergence ragweed; conditions: 0 to 100 scale, 0 is no effect, 100 is complete control
In short: as §2

[7] = tested on: ryegrass, Italian (Italian ryegrass, Lolium multiflorum); assay: Test A preemergence ryegrass, Italian; conditions: 0 to 100 scale, 0 no effect, 100 complete control
In short: as §2

[8] = tested on: kochia (Kochia scoparia); assay: Test A preemergence kochia; conditions: 0 to 100 scale, 0 no effect, 100 complete control
In short: as §2

[9] = tested on: galium (catchweed bedstraw, Galium aparine); assay: Test A postemergence galium; conditions: 0 to 100 scale, 0 is no effect, 100 is complete control
In short: as §2

[10] = tested on: kochia (Kochia scoparia); assay: Test A postemergence kochia; conditions: 0 to 100 scale, 0 is no effect, 100 is complete control
In short: as §2

[11] = tested on: foxtail, giant (giant foxtail, Setaria faberii); assay: Test A postemergence foxtail, giant; conditions: 0 to 100 scale, 0 is no effect, 100 is complete control
In short: as §2

[12] = tested on: barnyardgrass (Echinochloa crus-galli); assay: Test A preemergence barnyardgrass; conditions: 0 to 100 scale, 0 no effect, 100 complete control
In short: as §2

[13] = tested on: ragweed (common ragweed, Ambrosia elatior); assay: Test A preemergence ragweed; conditions: 0 to 100 scale, 0 no effect, 100 complete control
In short: as §2

[14] = tested on: barnyardgrass (Echinochloa crus-galli); assay: Test A postemergence barnyardgrass; conditions: 0 to 100 scale, 0 is no effect, 100 is complete control
In short: as §2

[15] = tested on: blackgrass (Alopecurus myosuroides); assay: Test A postemergence blackgrass; conditions: 0 to 100 scale, 0 is no effect, 100 is complete control
In short: as §2

[16] = tested on: rice (Oryza sativa); assay: Test B flooded paddy test rice; conditions: Table B, Flood, 500 g ai/ha, scale 0 to 100
In short: as §1

[17] = tested on: barnyardgrass (Echinochloa crus-galli); assay: Test B flooded paddy test barnyardgrass; conditions: Table B, Flood, 500 g ai/ha, scale 0 to 100
In short: as §1

[18] = tested on: pigweed (Amaranthus retroflexus); assay: Test A preemergence pigweed; conditions: 0 to 100 scale, 0 no effect, 100 complete control
In short: as §2

[19] = tested on: wheat (Triticum aestivum); assay: Test A postemergence wheat; conditions: 0 to 100 scale, 0 is no effect, 100 is complete control
In short: as §2

[20] = tested on: pigweed (Amaranthus retroflexus); assay: Test A postemergence pigweed; conditions: 0 to 100 scale, 0 is no effect, 100 is complete control
In short: as §2

SMILES: O=C1NCCC(c2cccc(C(F)(F)F)c2)C1C(=O)Nc1ccccc1Cl (racemic) [Compound 17]
- Plant response rating [1]: 0
- Foxtail, Giant plant response rating ([2]; 125 g ai/ha): 80
- Foxtail, Giant plant response rating ([2]; 500 g ai/ha): 90
- Plant response rating [3]: 40
- Plant response rating, Ryegrass, Italian ([4]; 125 g ai/ha): 0
- Plant response rating, Ryegrass, Italian ([4]; 500 g ai/ha): 20
- Plant response rating, Corn ([5]; 125 g ai/ha): 0
- Plant response rating, Corn ([5]; 500 g ai/ha): 0
- Plant response rating, Ragweed ([6]; 125 g ai/ha): 0
- Plant response rating, Ragweed ([6]; 500 g ai/ha): 0
- Ryegrass, Italian plant response rating ([7]; 125 g ai/ha): 20
- Ryegrass, Italian plant response rating ([7]; 500 g ai/ha): 40
- Kochia plant response rating ([8]; 125 g ai/ha): 30
- Kochia plant response rating ([8]; 500 g ai/ha): 30
- Plant response rating, Galium ([9]; 125 g ai/ha): 20
- Plant response rating, Galium ([9]; 500 g ai/ha): 20
- Plant response rating, Kochia ([10]; 125 g ai/ha): 0
- Plant response rating, Kochia ([10]; 500 g ai/ha): 20
- Plant response rating, Foxtail, Giant ([11]; 125 g ai/ha): 80
- Plant response rating, Foxtail, Giant ([11]; 500 g ai/ha): 80
- Barnyardgrass plant response rating ([12]; 125 g ai/ha): 50
- Barnyardgrass plant response rating ([12]; 500 g ai/ha): 80
- Ragweed plant response rating ([13]; 125 g ai/ha): 0
- Ragweed plant response rating ([13]; 500 g ai/ha): 0
- Plant response rating, Barnyardgrass ([14]; 125 g ai/ha): 80
- Plant response rating, Barnyardgrass ([14]; 500 g ai/ha): 80
- Plant response rating, Blackgrass ([15]; 125 g ai/ha): 30
- Plant response rating, Blackgrass ([15]; 500 g ai/ha): 30
- Plant response rating [16]: 0
- Plant response rating [17]: 35
- Pigweed plant response rating ([18]; 125 g ai/ha): 0
- Pigweed plant response rating ([18]; 500 g ai/ha): 0
- Plant response rating, Wheat ([19]; 125 g ai/ha): 20
- Plant response rating, Wheat ([19]; 500 g ai/ha): 20
- Plant response rating, Pigweed ([20]; 125 g ai/ha): 0
- Plant response rating, Pigweed ([20]; 500 g ai/ha): 0
